Test results reported in ChEMBL document CHEMBL1201862, “PubChem BioAssay data set” (2004).
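Briefly, cells in 96-well plates were exposed to five compound concentrations for 48 h, and endpoints were estimated by linear interpolation. Here, GI50 denotes the concentration required for 50% inhibition of growth.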 Active and inactive are the calls of the source. Rule as the data show it: active = GI50 up to about 1.1 µM and inactive = higher.

Assays:
Assay in all cases: inhibition of tumour cell growth, NCI panel, 48 h
786-0 = test system: 786-0
A498 = test system: A498
A549 = test system: A549
ACHN = test system: ACHN
CAKI-1 = test system: CAKI-1
CCRF-CEM = test system: CCRF-CEM
COLO 205 = test system: COLO 205
DLD-1 = test system: DLD-1
DMS-273 = test system: DMS-273
EKVX = test system: EKVX
HCC 2998 = test system: HCC 2998
HCT-116 = test system: HCT-116
HCT-15 = test system: HCT-15
HL-60 = test system: HL-60
HOP-18 = test system: HOP-18
HOP-62 = test system: HOP-62
HOP-92 = test system: HOP-92
HT-29 = test system: HT-29
IGROV-1 = test system: IGROV-1
K562 = test system: K562
KM-20L2 = test system: KM-20L2
KM12 = test system: KM12
LOX IMVI = test system: LOX IMVI
LXFL 529 = test system: LXFL 529
M14 = test system: M14
M19-MEL = test system: M19-MEL
MOLT-4 = test system: MOLT-4
Malme-3M = test system: Malme-3M
NCI-H226 = test system: NCI-H226
NCI-H23 = test system: NCI-H23
NCI-H460 = test system: NCI-H460
NCI-H522 = test system: NCI-H522
OVCAR-3 = test system: OVCAR-3
OVCAR-4 = test system: OVCAR-4
OVCAR-5 = test system: OVCAR-5
OVCAR-8 = test system: OVCAR-8
RPMI-8226 = test system: RPMI-8226
RXF 393 = test system: RXF 393
RXF 631 = test system: RXF 631
SF-268 = test system: SF-268
SF-295 = test system: SF-295
SF-539 = test system: SF-539
SK-MEL-28 = test system: SK-MEL-28
SK-MEL-2 = test system: SK-MEL-2
SK-MEL-5 = test system: SK-MEL-5
SK-OV-3 = test system: SK-OV-3
SN12C = test system: SN12C
SNB-19 = test system: SNB-19
SNB-75 = test system: SNB-75
SNB-78 = test system: SNB-78
SR = test system: SR
SW-620 = test system: SW-620
TK-10 = test system: TK-10
U-251 = test system: U-251
UACC-257 = test system: UACC-257
UACC-62 = test system: UACC-62
UO-31 = test system: UO-31
XF498 = test system: XF498

`CC(=O)OC1C(=O)C(O)C(C)OC1O[C@@H]1C[C@@]2(C)[C@@H]3CC=C4[C@@H](C[C@H](O)C(=O)C4(C)C)[C@]3(C)C(=O)C[C@]2(C)[C@H]1[C@@](C)(O)C(=O)/C=C/C(C)(C)O` (stereo partly drawn) was tested, and the GI50 (786-0) was 1.53 µM (inactive), the GI50 (A498) was 0.577 µM (active) and the GI50 (A549) was 2.64 µM (inactive). For the same molecule, the GI50 (ACHN) was 2.74 µM (inactive), the GI50 (CAKI-1) was 1.36 µM (inactive) and the GI50 (CCRF-CEM) was 0.662 µM (active). For the same molecule, the GI50 (COLO 205) was 0.885 µM (active), the GI50 (DLD-1) was 1.3 µM (inactive) and the GI50 (DMS-273) was 0.658 µM (active). The GI50 (EKVX) was 3.86 µM (inactive), the GI50 (HCC 2998) was 2.27 µM (inactive) and the GI50 (HCT-116) was 2.2 µM (inactive). The GI50 (HCT-15) was 1.08 µM, the GI50 (HL-60) was 1.91 µM (inactive) and the GI50 (HOP-18) was 1.22 µM (inactive). The GI50 (HOP-62) was 2.96 µM (inactive), the GI50 (HOP-92) was 1.28 µM (inactive) and the GI50 (HT-29) was 1.35 µM (inactive). For the same molecule, the GI50 (IGROV-1) was 2.6 µM (inactive), the GI50 (K562) was 3.35 µM (inactive) and the GI50 (KM-20L2) was 1.39 µM (inactive). The GI50 (KM12) was > 7.53 µM (inactive), the GI50 (LOX IMVI) was 0.706 µM (active) and the GI50 (LXFL 529) was 0.881 µM (active). The GI50 (M14) was 0.918 µM (active), the GI50 (M19-MEL) was 2.44 µM (inactive) and the GI50 (MOLT-4) was 3.51 µM (inactive). For the same molecule, the GI50 (Malme-3M) was 1.04 µM (active), the GI50 (NCI-H226) was 0.693 µM (active) and the GI50 (NCI-H23) was 6 µM (inactive). For the same molecule, the GI50 (NCI-H460) was 1.98 µM (inactive), the GI50 (NCI-H522) was 0.975 µM (active) and the GI50 (OVCAR-3) was 1.7 µM (inactive). The GI50 (OVCAR-4) was 1.02 µM (active), the GI50 (OVCAR-5) was 7.29 µM (inactive) and the GI50 (OVCAR-8) was 6.28 µM (inactive). For the same molecule, the GI50 (RPMI-8226) was 0.44 µM (active), the GI50 (RXF 393) was 0.845 µM (active) and the GI50 (RXF 631) was 2.39 µM (inactive). The GI50 (SF-268) was 0.843 µM (active), the GI50 (SF-295) was 3.03 µM (inactive) and the GI50 (SF-539) was 0.675 µM (active). For the same molecule, the GI50 (SK-MEL-28) was 0.447 µM (active), the GI50 (SK-MEL-2) was 0.748 µM (active) and the GI50 (SK-MEL-5) was 1.47 µM (inactive). The GI50 (SK-OV-3) was 3.06 µM (inactive), the GI50 (SN12C) was 2.61 µM (inactive) and the GI50 (SNB-19) was 1.62 µM (inactive). The GI50 (SNB-75) was 0.71 µM (active), the GI50 (SNB-78) was 0.916 µM (active) and the GI50 (SR) was 1.52 µM (inactive). For the same molecule, the GI50 (SW-620) was 1.12 µM (inactive), the GI50 (TK-10) was 1.85 µM (inactive) and the GI50 (U-251) was 1.16 µM (inactive). For the same molecule, the GI50 (UACC-257) was 0.91 µM (active), the GI50 (UACC-62) was 3.15 µM (inactive) and the GI50 (UO-31) was 3.18 µM (inactive). The GI50 (XF498) was 0.297 µM (active).
